Reference: patent US12116388B2, “Amylin receptor agonists” (Novo Nordisk A/S, priority 2022, dated 2024)
Starred links: 1 amine or outer side, 2 acyl side, 3 side chain; linkers in the order of their positions; H or OH if unused. Residues, ends and D or L forms follow the SMILES beside them. *: point of attachment. C20 diacid = O=C(O)CCCCCCCCCCCCCCCCCCC(=O)*; γGlu = O=C(O)[C@H](CCC(=O)[*:2])N[*:1]

Columns and labels:
[1] = target: T1, human calcitonin receptor (hCTR) (Homo sapiens, UniProt P30988); test: Human calcitonin receptor (hCTR) in vitro potency assay, CRE-luciferase reporter in BHK cells; format: cell-based; conditions: BHK hCTR/CRE-Luc cells, 3 hours incubation, assay buffer with 1% ovalbumin; read-out: hCalcR potency, EC50
T1 construct: host or cells: BHK (Baby Hamster Kidney), Hollex-1 cell line
T1 sequence (P30988 25-474): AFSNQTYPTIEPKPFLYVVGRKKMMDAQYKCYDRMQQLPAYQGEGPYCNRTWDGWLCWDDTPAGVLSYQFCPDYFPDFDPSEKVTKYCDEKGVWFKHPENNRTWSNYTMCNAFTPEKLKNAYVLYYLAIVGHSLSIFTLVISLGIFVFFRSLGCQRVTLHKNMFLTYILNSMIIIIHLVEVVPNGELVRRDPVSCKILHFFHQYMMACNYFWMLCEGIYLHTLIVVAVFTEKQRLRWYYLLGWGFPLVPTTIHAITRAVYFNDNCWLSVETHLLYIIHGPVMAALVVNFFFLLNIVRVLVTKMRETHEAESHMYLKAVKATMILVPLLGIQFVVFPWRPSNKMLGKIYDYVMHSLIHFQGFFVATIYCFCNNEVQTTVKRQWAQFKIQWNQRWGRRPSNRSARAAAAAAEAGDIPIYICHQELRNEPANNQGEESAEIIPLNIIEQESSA
From the text: (§1) Activation of hCTR leads to increased cellular concentrations of CAMP. Consequently, transcription is activated by promotors containing multiple copies of the CAMP response element (CRE). It is thus possible to measure hCTR activity using a CRE-luciferase reporter gene introduced into Baby Hamster Kidney (BHK) cells co-expressing the hCTR.
(§2) A BHK cell line was stably transfected with the human calcitonin receptor (a) and a CRE-responsive luciferase (CRE-Luc) reporter gene according to methods known to the person skilled in the art (Hollex-1 cell line, obtained from Zymogenetics described in U.S. Pat. No. 5,622,839).
(§3) Cells stocks were prepared by culturing of the stably transfected BHK hCTR/CRE-Luc cell line in growth medium consisting of DMEM (Gibco, 31966-021) supplemented with 10% FBS (Gibco, 16140-071), 1% Pen/Strep (Gibco, 15140-122), 0.5 mg/mL Geneticin (Gibco, 10131-027) and 250 nM Methotrexate (Sigma, A6770). Cells at approximately 80-90% confluence were washed once with PBS (Gibco 14190-094) and loosened from the cell flasks with Versene (Gibco, 15040-033) or TrypLE™ (Gibco, 12605-010). After centrifugation, the cell pellet was dissolved and diluted to approximately 2.5×10E6 cells/mL in Recovery™ Cell Culture Freezing Medium (Gibco, 12648-010). Cells were aliquoted and stored at −180° C. until use.
(§4) The assay buffer consisted of DMEM without phenol red (Gibco, 11880-028) supplemented with 1× GlutaMAX (Gibco, 35050-038), 10 mM HEPES (Gibco, 15630-056) and 1% (w/v) ovalbumin (Sigma, A5503).
(§5) To perform the assay, BHK hCTR/CRE-Luc cells were thawed, washed once in PBS and seeded in 40 μL growth medium in a white 384-well culture plate (PerkinElmer, 6007688) at a cell density of 4.000 cells/well on the day before the experiment. The plate was incubated over night at 37° C. in 5% CO2. On the day of the assay, cells were washed once in assay buffer. Serial dilutions (7-fold dilutions, 7 concentrations Pr. compound and one well containing only assay buffer) of comparator compounds and amylin analogues were performed in assay buffer often starting from approximately 10 nM in 96-well plates and 30 μL of each concentration added to the 384-well assay plate with cells. The assay plate was incubated for 3 hours at 37° C. in 5% CO2 after which 30 μL SteadyLite Plus (PerkinElmer, 6066759) was added to each well. The assay plate was sealed, incubated at room temperature with gentle shaking for 5 minutes followed by 30 minutes incubation without shaking while protected from light. Luminescence was detected on a luminescence plate reader e.g. a Synergy 2 (BioTek).

[2] = target: T2, human amylin receptor (hAMYR3) (Homo sapiens, UniProt O60896+P30988); test: Human amylin receptor (hAMYR3) in vitro potency assay, CRE-luciferase reporter in BHK cells; format: cell-based; conditions: BHK hAMYR3/CRE-Luc cells, 3 hours incubation, assay buffer with 1% ovalbumin
T2 construct: host or cells: BHK (Baby Hamster Kidney), Hollex-1 cell line further transfected with RAMP3
From the text: as §1, with “hAMYR3” for “hCTR”, “cAMP.” for “CAMP.”, “hAMYR3.” for “hCTR.”
as §2, with “5,622,839). The cell line was further transfected with human receptor modifying protein 3 (RAMP3) using standard methods. This turns the human calcitonin receptor into a human amylin-3(a) receptor.” for “5,622,839).”
as §3, with “hAMYR3/CRE-Luc” for “hCTR/CRE-Luc”, “10131-027), 0.4 mg/mL Hygromycin (Invitrogen, 10687010)” for “10131-027)”
as §4
as §5, with “hAMYR3/CRE-Luc” for “hCTR/CRE-Luc”

T2 sequence (O60896 24-148, one chain of several): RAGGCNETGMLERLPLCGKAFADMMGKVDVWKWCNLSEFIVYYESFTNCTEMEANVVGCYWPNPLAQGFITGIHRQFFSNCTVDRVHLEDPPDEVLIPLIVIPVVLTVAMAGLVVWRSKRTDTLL

EC50 [1]	EC50 [2]	SMILES
1.3 pM		CC[C@H](C)[C@H](NC(=O)[C@@H]1CCCN1C(=O)CNC(=O)[C@H](Cc1ccccc1)NC(=O)[C@H](CC(N)=O)NC(=O)[C@H](CC(=O)O)NC(=O)[C@H](CO)NC(=O)[C@H](CO)NC(=O)[C@H](Cc1c[nH]cn1)NC(=O)[C@H](Cc1c[nH]cn1)NC(=O)[C@H](CC(C)C)NC(=O)[C@H](Cc1ccccc1)NC(=O)[C@H](CCC(=O)O)NC(=O)[C@H](C)NC(=O)[C@H](CC(C)C)NC(=O)[C@H](CCCNC(=N)N)NC(=O)[C@H](CCC(N)=O)NC(=O)[C@@H](NC(=O)[C@H](CCC(N)=O)NC(=O)[C@H](C)NC(=O)[C@@H](NC(=O)[C@H](CO)NC(=O)[C@H](CC(C)C)NC(=O)[C@H](Cc1c[nH]cn1)NC(=O)[C@H](CO)NC(=O)[C@H](C)NC(=O)CC[C@H](NC(=O)CCCCCCCCCCCCCCCCCCC(=O)O)C(=O)O)[C@@H](C)O)[C@@H](C)O)C(=O)N[C@@H](CC(C)C)C(=O)N1CCC[C@H]1C(=O)N1CCC[C@H]1C(=O)N[C@H](C(=O)N[C@@H](CC(=O)O)C(=O)N[C@H](C(=O)NCC(=O)N[C@@H](CO)C(=O)N[C@@H](CC(N)=O)C(=O)N[C@H](C(=O)N1CCC[C@H]1C(N)=O)[C@@H](C)O)C(C)C)[C@@H](C)O [Compound 3, N^1-[(4S)-4-carboxy-4-(19-carboxynonadecanoylamino)butanoyl]-[Ala1,Ser2,His3,Leu4,Ser5,Ala7,Gln8,Glu14,His17,Asp21,Pro25,Pro28,Pro29,Asp31,Pro37]-human amylin] ({C20 diacid-γGlu}-ASHLSTAQTQRLAEFLHHSSDNFGPILPPTDVGSNTP-NH2)
1.49 pM	1.09 pM	CC[C@H](C)[C@H](NC(=O)[C@@H]1CCCN1C(=O)CNC(=O)[C@H](Cc1ccccc1)NC(=O)[C@H](Cc1c[nH]cn1)NC(=O)[C@H](Cc1c[nH]cn1)NC(=O)[C@H](CC(C)C)NC(=O)[C@H](Cc1ccccc1)NC(=O)[C@H](CCC(=O)O)NC(=O)[C@H](C)NC(=O)[C@H](CC(C)C)NC(=O)[C@H](CCCNC(=N)N)NC(=O)[C@H](C)NC(=O)[C@@H](NC(=O)[C@H](CCC(N)=O)NC(=O)[C@H](C)NC(=O)[C@@H](NC(=O)[C@H](CO)NC(=O)[C@H](CC(C)C)NC(=O)[C@H](Cc1c[nH]cn1)NC(=O)[C@H](CO)NC(=O)[C@H](C)NC(=O)CC[C@H](NC(=O)CCCCCCCCCCCCCCCCCCC(=O)O)C(=O)O)[C@@H](C)O)[C@@H](C)O)C(=O)N[C@@H](CC(C)C)C(=O)N1CCC[C@H]1C(=O)N1CCC[C@H]1C(=O)N[C@H](C(=O)N[C@@H](CC(=O)O)C(=O)N[C@H](C(=O)NCC(=O)N[C@@H](CO)C(=O)N[C@@H](CCC(=O)O)C(=O)N[C@H](C(=O)N1CCC[C@H]1C(N)=O)[C@@H](C)O)C(C)C)[C@@H](C)O [Compound 5, N^1-[(4S)-4-carboxy-4-(19-carboxynonadecanoylamino)butanoyl]-[Ala1,Ser2,His3,Leu4,Ser5,Ala7,Gln8,Ala10,Glu14,His17,Pro25,Pro28,Pro29,Asp31,Glu35,Pro37],des-(19-22)-human amylin] ({C20 diacid-γGlu}-ASHLSTAQTARLAEFLHHFGPILPPTDVGSETP-NH2)
1.25 pM		CC[C@H](C)[C@H](NC(=O)[C@H](C)NC(=O)CNC(=O)[C@H](Cc1ccccc1)NC(=O)[C@@H]1CCCN1C(=O)[C@H](CC(=O)O)NC(=O)[C@H](CO)NC(=O)[C@H](CO)NC(=O)[C@H](Cc1c[nH]cn1)NC(=O)[C@H](Cc1c[nH]cn1)NC(=O)[C@H](CC(C)C)NC(=O)[C@H](Cc1ccccc1)NC(=O)[C@H](CCC(=O)O)NC(=O)[C@H](C)NC(=O)[C@H](CC(C)C)NC(=O)[C@H](CCCNC(=N)N)NC(=O)[C@H](CCC(N)=O)NC(=O)[C@@H](NC(=O)[C@H](CCC(N)=O)NC(=O)[C@H](C)NC(=O)[C@@H](NC(=O)[C@H](CO)NC(=O)[C@H](CC(C)C)NC(=O)[C@H](Cc1c[nH]cn1)NC(=O)[C@H](CO)NC(=O)[C@H](C)NC(=O)CC[C@H](NC(=O)CCCCCCCCCCCCCCCCCCC(=O)O)C(=O)O)[C@@H](C)O)[C@@H](C)O)C(=O)N1CCC[C@H]1C(=O)N[C@@H](CO)C(=O)N[C@@H](CO)C(=O)N[C@H](C(=O)N[C@@H](CC(=O)O)C(=O)N[C@H](C(=O)NCC(=O)N1CCC[C@H]1C(=O)N[C@@H](CC(=O)O)C(=O)N[C@H](C(=O)N1CCC[C@H]1C(N)=O)[C@@H](C)O)C(C)C)[C@@H](C)O [Compound 6, N^1-[(4S)-4-carboxy-4-(19-carboxynonadecanoylamino)butanoyl]-[Ala1,Ser2,His3,Leu4,Ser5,Ala7,Gln8,Glu14,His17,Asp21,Pro22,Pro27,Asp31,Pro34,Asp35,Pro37]-human amylin] ({C20 diacid-γGlu}-ASHLSTAQTQRLAEFLHHSSDPFGAIPSSTDVGPDTP-NH2)
